Experimental data reported in the kinase profiling compilation of Christmann-Franck et al. (2016).

Tests used:
STK3 (human) = STK3 (human) (UniProt Q13188)
DYRK1A (human) = DYRK1A (human) (UniProt Q13627)
IGF1R (human) = IGF1R (human) (UniProt P08069)
MAPK11 (human) = MAPK11 (human) (UniProt Q15759)
MAPKAPK2 (human) = MAPKAPK2 (human) (UniProt P49137)
CAMKK2 (human) = CAMKK2 (human) (UniProt Q96RR4)
PIM2 (human) = PIM2 (human) (UniProt Q9P1W9)
RPS6KA5 KD1 KD2 (human) = RPS6KA5 KD1 KD2 (human) (UniProt O75582)
MAPK12 (human) = MAPK12 (human) (UniProt P53778)
EPHA2 (human) = EPHA2 (human) (UniProt P29317)
EPHB3 (human) = EPHB3 (human) (UniProt P54753)
SRPK1 (human) = SRPK1 (human) (UniProt Q96SB4)
CaMK1 (human) = CaMK1 (human) (UniProt Q14012)
HIPK2 (human) = HIPK2 (human) (UniProt Q9H2X6)
Sequence of HIPK2 (human) (Q9H2X6 whole entry, looked up): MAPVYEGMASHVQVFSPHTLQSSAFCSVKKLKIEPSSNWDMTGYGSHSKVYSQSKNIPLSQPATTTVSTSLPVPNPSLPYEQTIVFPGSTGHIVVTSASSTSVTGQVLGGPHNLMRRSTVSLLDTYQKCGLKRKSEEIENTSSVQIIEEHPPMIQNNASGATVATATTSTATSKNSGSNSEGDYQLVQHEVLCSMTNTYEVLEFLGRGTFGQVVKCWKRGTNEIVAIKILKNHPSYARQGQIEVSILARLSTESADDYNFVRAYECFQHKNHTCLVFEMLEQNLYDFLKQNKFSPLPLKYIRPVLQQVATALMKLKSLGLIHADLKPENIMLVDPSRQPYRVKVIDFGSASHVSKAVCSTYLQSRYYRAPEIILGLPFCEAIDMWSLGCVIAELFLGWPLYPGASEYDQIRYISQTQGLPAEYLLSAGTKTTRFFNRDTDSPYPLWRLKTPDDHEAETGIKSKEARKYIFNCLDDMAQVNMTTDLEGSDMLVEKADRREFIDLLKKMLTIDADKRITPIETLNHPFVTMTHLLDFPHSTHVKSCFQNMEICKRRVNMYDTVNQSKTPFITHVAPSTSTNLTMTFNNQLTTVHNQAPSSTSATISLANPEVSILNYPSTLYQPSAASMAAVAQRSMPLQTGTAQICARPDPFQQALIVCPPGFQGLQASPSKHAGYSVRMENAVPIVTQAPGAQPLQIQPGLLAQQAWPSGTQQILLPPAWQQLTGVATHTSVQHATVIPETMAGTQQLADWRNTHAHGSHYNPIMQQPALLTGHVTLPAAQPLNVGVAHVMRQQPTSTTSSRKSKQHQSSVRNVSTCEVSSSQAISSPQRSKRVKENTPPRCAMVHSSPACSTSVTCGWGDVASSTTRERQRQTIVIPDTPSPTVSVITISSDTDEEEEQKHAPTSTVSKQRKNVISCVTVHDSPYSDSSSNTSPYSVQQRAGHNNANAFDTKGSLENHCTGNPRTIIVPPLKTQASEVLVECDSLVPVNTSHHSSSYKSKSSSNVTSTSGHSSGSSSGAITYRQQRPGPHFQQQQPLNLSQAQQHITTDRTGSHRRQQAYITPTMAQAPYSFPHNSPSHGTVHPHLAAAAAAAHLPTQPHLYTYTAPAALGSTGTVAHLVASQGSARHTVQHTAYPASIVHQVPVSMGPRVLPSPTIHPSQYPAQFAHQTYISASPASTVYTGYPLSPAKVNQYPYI

MAPK9 (human) = MAPK9 (human) (UniProt P45984)
Sequence of MAPK9 (human) (P45984 whole entry, looked up): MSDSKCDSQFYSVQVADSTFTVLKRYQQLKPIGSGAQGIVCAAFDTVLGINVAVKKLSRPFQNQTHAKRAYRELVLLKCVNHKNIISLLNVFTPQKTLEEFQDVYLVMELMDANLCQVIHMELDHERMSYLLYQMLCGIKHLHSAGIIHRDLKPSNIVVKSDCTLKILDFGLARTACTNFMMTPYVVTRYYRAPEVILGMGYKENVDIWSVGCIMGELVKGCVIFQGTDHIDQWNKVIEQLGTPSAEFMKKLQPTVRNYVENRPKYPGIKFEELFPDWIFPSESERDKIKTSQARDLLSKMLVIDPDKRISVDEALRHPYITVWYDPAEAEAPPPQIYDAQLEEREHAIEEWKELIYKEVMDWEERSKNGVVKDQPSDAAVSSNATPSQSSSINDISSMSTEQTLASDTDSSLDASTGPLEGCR

PKN2 (human) = PKN2 (human) (UniProt Q16513)
MAPK13 (human) = MAPK13 (human) (UniProt O15264)
PHKG1 (human) = PHKG1 (human) (UniProt Q16816)
Sequence of PHKG1 (human) (Q16816 whole entry, looked up): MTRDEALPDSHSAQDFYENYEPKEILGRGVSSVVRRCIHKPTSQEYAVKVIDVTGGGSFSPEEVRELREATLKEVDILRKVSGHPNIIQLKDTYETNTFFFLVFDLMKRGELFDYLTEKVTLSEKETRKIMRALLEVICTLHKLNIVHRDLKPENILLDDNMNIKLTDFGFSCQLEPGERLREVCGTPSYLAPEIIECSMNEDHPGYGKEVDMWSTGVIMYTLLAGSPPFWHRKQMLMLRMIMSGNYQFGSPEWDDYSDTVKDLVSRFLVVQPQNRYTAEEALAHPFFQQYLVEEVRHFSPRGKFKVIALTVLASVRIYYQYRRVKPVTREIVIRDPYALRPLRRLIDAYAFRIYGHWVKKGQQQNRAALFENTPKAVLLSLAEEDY

ROCK2 (rat) = details: accession and sequence are those of the human protein
FGFR1 (human) = FGFR1 (human) (UniProt P11362)
Sequence of FGFR1 (human) (P11362 whole entry, looked up): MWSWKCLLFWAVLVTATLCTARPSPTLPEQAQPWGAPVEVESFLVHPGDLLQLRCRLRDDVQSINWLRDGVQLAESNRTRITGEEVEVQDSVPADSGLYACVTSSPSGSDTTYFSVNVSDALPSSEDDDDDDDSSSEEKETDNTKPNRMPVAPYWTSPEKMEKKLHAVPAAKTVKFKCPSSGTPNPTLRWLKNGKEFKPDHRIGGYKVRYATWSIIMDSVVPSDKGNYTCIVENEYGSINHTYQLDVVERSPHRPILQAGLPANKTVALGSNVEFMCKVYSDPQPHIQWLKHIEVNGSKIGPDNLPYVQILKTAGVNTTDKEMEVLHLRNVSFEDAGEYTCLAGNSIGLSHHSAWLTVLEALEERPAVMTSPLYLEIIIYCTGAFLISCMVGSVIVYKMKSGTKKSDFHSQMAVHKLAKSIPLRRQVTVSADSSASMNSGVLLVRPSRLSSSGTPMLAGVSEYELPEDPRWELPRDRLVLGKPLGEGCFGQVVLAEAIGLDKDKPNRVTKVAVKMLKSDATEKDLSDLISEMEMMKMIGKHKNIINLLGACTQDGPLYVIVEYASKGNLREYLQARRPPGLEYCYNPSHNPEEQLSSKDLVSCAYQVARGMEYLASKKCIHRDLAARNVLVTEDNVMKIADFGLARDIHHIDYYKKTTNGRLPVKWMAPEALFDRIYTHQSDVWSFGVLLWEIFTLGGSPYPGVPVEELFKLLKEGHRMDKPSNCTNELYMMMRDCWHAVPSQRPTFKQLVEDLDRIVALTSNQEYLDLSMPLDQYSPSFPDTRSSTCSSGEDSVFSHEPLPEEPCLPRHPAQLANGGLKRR

MAPK1 (human) = MAPK1 (human) (UniProt P28482)
Sequence of MAPK1 (human) (P28482 whole entry, looked up): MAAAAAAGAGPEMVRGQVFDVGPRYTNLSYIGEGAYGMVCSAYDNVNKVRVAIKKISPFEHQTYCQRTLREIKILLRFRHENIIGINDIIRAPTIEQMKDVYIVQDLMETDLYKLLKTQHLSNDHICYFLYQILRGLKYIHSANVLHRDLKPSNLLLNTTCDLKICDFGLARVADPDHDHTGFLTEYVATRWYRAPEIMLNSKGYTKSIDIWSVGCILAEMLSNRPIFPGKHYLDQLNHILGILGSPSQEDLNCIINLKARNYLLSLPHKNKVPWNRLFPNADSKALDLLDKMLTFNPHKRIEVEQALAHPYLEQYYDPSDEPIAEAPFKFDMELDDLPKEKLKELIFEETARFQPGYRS

MELK (human) = MELK (human) (UniProt Q14680)
CDK2 CCNA2 (human) = CDK2 CCNA2 (human) (UniProt P20248+P24941)
PRKAA1 or PRKAA2 (rat) = details: accession and sequence are those of the human protein
CSK (human) = CSK (human) (UniProt P41240)
MKNK1 (human) = MKNK1 (human) (UniProt Q9BUB5)
PIM3 (human) = PIM3 (human) (UniProt Q86V86)
MKNK2 (human) = MKNK2 (human) (UniProt Q9HBH9)
MAP2K1 (human) = MAP2K1 (human) (UniProt Q02750)
NEK6 (human) = NEK6 (human) (UniProt Q9HC98)
PAK7 (human) = PAK7 (human) (UniProt Q9P286)
PRKACA (human) = PRKACA (human) (UniProt P17612)
PAK4 (human) = PAK4 (human) (UniProt O96013)
CHEK1 (human) = CHEK1 (human) (UniProt O14757)
Sequence of CHEK1 (human) (O14757 whole entry, looked up): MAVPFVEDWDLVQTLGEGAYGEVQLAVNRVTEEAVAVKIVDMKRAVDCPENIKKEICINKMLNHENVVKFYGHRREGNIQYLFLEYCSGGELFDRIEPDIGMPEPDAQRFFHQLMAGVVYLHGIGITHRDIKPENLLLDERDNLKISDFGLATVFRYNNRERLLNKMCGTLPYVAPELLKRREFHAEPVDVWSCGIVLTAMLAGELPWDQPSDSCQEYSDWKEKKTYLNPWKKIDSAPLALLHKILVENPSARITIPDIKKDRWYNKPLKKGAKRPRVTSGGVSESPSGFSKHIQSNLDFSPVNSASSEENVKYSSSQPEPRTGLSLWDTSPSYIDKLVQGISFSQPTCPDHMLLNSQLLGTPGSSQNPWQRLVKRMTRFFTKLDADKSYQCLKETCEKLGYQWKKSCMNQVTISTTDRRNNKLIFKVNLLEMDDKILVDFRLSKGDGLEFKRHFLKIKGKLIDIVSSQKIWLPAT

Sequence of CAMKK2 (human) (Q96RR4 whole entry, looked up): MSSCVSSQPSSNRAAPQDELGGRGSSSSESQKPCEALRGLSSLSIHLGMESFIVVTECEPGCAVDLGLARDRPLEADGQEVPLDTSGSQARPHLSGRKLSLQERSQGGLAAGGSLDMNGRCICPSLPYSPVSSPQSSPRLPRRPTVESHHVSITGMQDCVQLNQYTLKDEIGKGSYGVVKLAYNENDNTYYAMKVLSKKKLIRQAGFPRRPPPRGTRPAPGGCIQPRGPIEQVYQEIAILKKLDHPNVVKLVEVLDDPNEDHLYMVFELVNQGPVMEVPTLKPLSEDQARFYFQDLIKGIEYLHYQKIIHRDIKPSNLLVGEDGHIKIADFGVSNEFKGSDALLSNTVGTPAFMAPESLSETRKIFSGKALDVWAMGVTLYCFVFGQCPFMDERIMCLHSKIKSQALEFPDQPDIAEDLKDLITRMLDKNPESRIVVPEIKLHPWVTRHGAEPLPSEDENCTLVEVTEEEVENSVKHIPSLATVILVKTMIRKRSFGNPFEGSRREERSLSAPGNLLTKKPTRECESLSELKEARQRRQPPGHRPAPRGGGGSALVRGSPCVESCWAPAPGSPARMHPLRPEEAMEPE
Sequence of STK3 (human) (Q13188 whole entry, looked up): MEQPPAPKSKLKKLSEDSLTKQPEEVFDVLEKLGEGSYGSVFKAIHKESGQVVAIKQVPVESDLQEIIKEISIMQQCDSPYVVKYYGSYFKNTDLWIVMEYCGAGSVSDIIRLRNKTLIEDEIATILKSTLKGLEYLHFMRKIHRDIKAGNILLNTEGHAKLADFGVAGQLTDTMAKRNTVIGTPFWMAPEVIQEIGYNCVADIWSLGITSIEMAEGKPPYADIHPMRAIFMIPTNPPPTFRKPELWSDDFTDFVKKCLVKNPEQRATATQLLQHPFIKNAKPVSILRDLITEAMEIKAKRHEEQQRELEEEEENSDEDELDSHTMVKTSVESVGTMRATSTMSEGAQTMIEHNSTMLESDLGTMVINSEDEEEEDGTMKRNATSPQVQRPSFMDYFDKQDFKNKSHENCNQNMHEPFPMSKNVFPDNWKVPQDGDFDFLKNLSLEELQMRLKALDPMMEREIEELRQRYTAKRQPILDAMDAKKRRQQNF

`COc1ccc(-c2ccc3c(N4CCOCC4)nc(N4C[C@@H](C)O[C@@H](C)C4)nc3n2)cc1CO` showed a per cent of control (STK3 (human); compound 1.0 µM) of 81%, a per cent of control (STK3 (human); compound 10.0 µM) of 102% and a per cent of control (DYRK1A (human); compound 1.0 µM) of 94%. The per cent of control (DYRK1A (human); compound 10.0 µM) was 80%, the per cent of control (IGF1R (human); compound 1.0 µM) was 117% and the per cent of control (IGF1R (human); compound 10.0 µM) was 89%. The per cent of control (MAPK11 (human); compound 1.0 µM) was 106%, the per cent of control (MAPK11 (human); compound 10.0 µM) was 83% and the per cent of control (MAPKAPK2 (human); compound 1.0 µM) was 98%. For the same molecule, the per cent of control (MAPKAPK2 (human); compound 10.0 µM) was 81%, the per cent of control (CAMKK2 (human); compound 1.0 µM) was 108% and the per cent of control (CAMKK2 (human); compound 10.0 µM) was 94%. The per cent of control (PIM2 (human); compound 1.0 µM) was 86%, the per cent of control (PIM2 (human); compound 10.0 µM) was 78% and the per cent of control (RPS6KA5 KD1 KD2 (human); compound 1.0 µM) was 101%. The per cent of control (RPS6KA5 KD1 KD2 (human); compound 10.0 µM) was 117%, the per cent of control (MAPK12 (human); compound 1.0 µM) was 89% and the per cent of control (MAPK12 (human); compound 10.0 µM) was 91%. For the same molecule, the per cent of control (EPHA2 (human); compound 1.0 µM) was 108%, the per cent of control (EPHA2 (human); compound 10.0 µM) was 96% and the per cent of control (EPHB3 (human); compound 1.0 µM) was 100%. It also gave a per cent of control (EPHB3 (human); compound 10.0 µM) of 78%, a per cent of control (SRPK1 (human); compound 1.0 µM) of 101% and a per cent of control (SRPK1 (human); compound 10.0 µM) of 94%. It also gave a per cent of control (CaMK1 (human); compound 1.0 µM) of 96%, a per cent of control (CaMK1 (human); compound 10.0 µM) of 101% and a per cent of control (HIPK2 (human); compound 1.0 µM) of 89%. It also gave a per cent of control (HIPK2 (human); compound 10.0 µM) of 89%, a per cent of control (MAPK9 (human); compound 1.0 µM) of 101% and a per cent of control (MAPK9 (human); compound 10.0 µM) of 103%. The per cent of control (PKN2 (human); compound 1.0 µM) was 95%, the per cent of control (PKN2 (human); compound 10.0 µM) was 105% and the per cent of control (MAPK13 (human); compound 1.0 µM) was 72%. For the same molecule, the per cent of control (MAPK13 (human); compound 10.0 µM) was 87%, the per cent of control (PHKG1 (human); compound 1.0 µM) was 89% and the per cent of control (PHKG1 (human); compound 10.0 µM) was 116%. For the same molecule, the per cent of control (ROCK2 (rat); compound 1.0 µM) was 75%, the per cent of control (ROCK2 (rat); compound 10.0 µM) was 86% and the per cent of control (FGFR1 (human); compound 1.0 µM) was 102%. For the same molecule, the per cent of control (FGFR1 (human); compound 10.0 µM) was 87%, the per cent of control (MAPK1 (human); compound 1.0 µM) was 102% and the per cent of control (MAPK1 (human); compound 10.0 µM) was 92%. The per cent of control (MELK (human); compound 1.0 µM) was 91%, the per cent of control (MELK (human); compound 10.0 µM) was 72% and the per cent of control (CDK2 CCNA2 (human); compound 1.0 µM) was 89%. It also gave a per cent of control (CDK2 CCNA2 (human); compound 10.0 µM) of 90%, a per cent of control (PRKAA1 or PRKAA2 (rat); compound 1.0 µM) of 97% and a per cent of control (PRKAA1 or PRKAA2 (rat); compound 10.0 µM) of 106%. For the same molecule, the per cent of control (CSK (human); compound 1.0 µM) was 90%, the per cent of control (CSK (human); compound 10.0 µM) was 99% and the per cent of control (MKNK1 (human); compound 1.0 µM) was 111%. It also gave a per cent of control (MKNK1 (human); compound 10.0 µM) of 75%, a per cent of control (PIM3 (human); compound 1.0 µM) of 114% and a per cent of control (PIM3 (human); compound 10.0 µM) of 75%. For the same molecule, the per cent of control (MKNK2 (human); compound 1.0 µM) was 87%, the per cent of control (MKNK2 (human); compound 10.0 µM) was 92% and the per cent of control (MAP2K1 (human); compound 1.0 µM) was 96%. It also gave a per cent of control (MAP2K1 (human); compound 10.0 µM) of 43%, a per cent of control (NEK6 (human); compound 1.0 µM) of 74% and a per cent of control (NEK6 (human); compound 10.0 µM) of 83%. For the same molecule, the per cent of control (PAK7 (human); compound 1.0 µM) was 101%, the per cent of control (PAK7 (human); compound 10.0 µM) was 81% and the per cent of control (PRKACA (human); compound 1.0 µM) was 115%. The per cent of control (PRKACA (human); compound 10.0 µM) was 85%, the per cent of control (PAK4 (human); compound 1.0 µM) was 11% and the per cent of control (PAK4 (human); compound 10.0 µM) was 75%. The per cent of control (CHEK1 (human); compound 1.0 µM) was 87% and the per cent of control (CHEK1 (human); compound 10.0 µM) was 86%.
